Laboratory results published in US7138361B2, “Herbicidal heterocycles” (E. I. du Pont de Nemours and Company, priority 2000, dated 2006).

Tests used:
Type in all cases: in vivo
[1] = system: lambsquarters (Chenopodium album); assay: Test C postemergence
Text: (§1) Seeds of plant species selected from bermudagrass (Cynodon dactylon), Surinam grass (Brachiaria decumbens), cocklebur (Xanthium strumarium), corn (Zea mays), crabgrass (Digitaria sanguinalis), woolly cupgrass (Eriochloa villosa), giant foxtail (Setaria faberii), goosegrass (Eleusine indica), johnsongrass (Sorghum halepense), kochia (Kochia scoparia), lambsquarters (Chenopodium album), morningglory (Ipomoea hederacea), yellow nutsedge (Cyperus esculentus), pigweed (Amaranthus retroflexus), common ragweed (Ambrosia elatior), soybean (Glycine max) and velvetleaf (Abutilon theophrasti) were planted and treated preemergence with test chemicals formulated in a non-phytotoxic solvent mixture which included a surfactant.
(§2) At the same time, plants selected from these crop and weed species and also winter barley (Hordeum vulgare), blackgrass (Alopecurus myosuroides), canary grass (Phalaris minor), chickweed (Stellaria media), downy brome (Bromus tectorum), green foxtail (Setaria viridis), Italian ryegrass (Lolium multiflorum), wheat (Triticum aestivum), wild oat (Avena fatua) and windgrass (Apera spica-venti) were treated with postemergence applications of some of the test chemicals formulated in the same manner. Plants ranged in height from 2 to 18 cm (1- to 4-leaf stage) for postemergence treatments. Plant species in the flooded paddy test consisted of rice (Oryza saliva), smallflower flatsedge (Cyperus difformis), duck salad (Heteranthera limosa) and barnyardgrass (Echinochloa crus-galli) grown to the 2-leaf stage for testing. Treated plants and controls were maintained in a greenhouse for 12 to 14 days, after which time all species were compared to controls and visually evaluated. Plant response ratings, summarized in Table C, are based on a scale of 0 to 100 where 0 is no effect and 100 is complete control. A dash (-) response means no test result.

[2] = system: pigweed (Amaranthus retroflexus); assay: Test C postemergence
Text: as §1, §2

kochia (Kochia scoparia) = assay: Test C postemergence
Text: as §1, §2

[3] = system: morning glory (Ipomoea hederacea); assay: Test B postemergence
How it was run: (§3)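 Visual injury scores, 0 = no effect to 100 = complete control, assigned against controls after 13 to 15 days in the greenhouse. Compounds formulated in non-phytotoxic solvent plus surfactant and applied to soil after planting (pre) or onto foliage of 1- to 4-leaf plants (post).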

[4] = system: lambsquarters (Chenopodium album); assay: Test B postemergence
How it was run: as §3

[5] = system: cocklebur (Xanthium strumarium); assay: Test B postemergence
How it was run: as §3

[6] = system: Surinam grass (Brachiaria decumbens); assay: Test B postemergence
How it was run: as §3

[7] = system: pigweed (Amaranthus retroflexus); assay: Test B postemergence
How it was run: as §3

[8] = system: giant foxtail (Setaria faberii); assay: Test B postemergence
How it was run: as §3

[9] = system: velvetleaf (Abutilon theophrasti); assay: Test B postemergence
How it was run: as §3

[10] = system: crabgrass (Digitaria sanguinalis); assay: Test B postemergence
How it was run: as §3

[11] = system: blackgrass (Alopecurus myosuroides); assay: Test B postemergence
How it was run: as §3

Sunflower = assay: Test C preemergence; settings: scale 0 to 100
[12] = Rate 250 g/ha, scale 0 to 100 (0 no effect, 100 complete control)
[13] = Rate 500 g/ha, scale 0 to 100 (0 no effect, 100 complete control)
[14] = Rate 125 g/ha, scale 0 to 100, 0 no effect, 100 complete control
[15] = Rate 500 g/ha, scale 0 to 100, 0 is no effect, 100 is complete control, 13 to 15 days
[16] = Rate 125 g/ha, scale 0 (no effect) to 100 (complete control), 13 to 15 days

Row | SMILES | Plant response rating, Lambsquarters ([1]; Rate 62 g/ha, scale 0 to 100) | Plant response rating, Lambsquarters [1, 12] | Plant response rating, Lambsquarters [1, 13] | Plant response rating, Pigweed ([2]; Rate 62 g/ha, scale 0 to 100) | Plant response rating, Pigweed [2, 12] | Plant response rating, Pigweed [2, 13] | Plant response rating, Kochia (kochia (Kochia scoparia); Rate 62 g/ha, scale 0 to 100) | Plant response rating, Kochia (kochia (Kochia scoparia); [12]) | Plant response rating, Kochia (kochia (Kochia scoparia); [13]) | Plant response rating, Cocklebur [5, 15] | Plant response rating, Surinam grass [6, 15] | Plant response rating, Blackgrass [11, 15] | Plant response rating, Sunflower (Sunflower; Rate 62 g/ha) | Plant response rating, Lambsquarters [1, 14] | Plant response rating, Pigweed [2, 14] | Plant response rating, Kochia (kochia (Kochia scoparia); [14]) | Plant response rating, Morningglory [3, 15] | Plant response rating, Lambsquarters [4, 15] | Plant response rating, Cocklebur [5, 16] | Plant response rating, Surinam grass [6, 16] | further results
1 | CCCC(C)c1ccn(C2CCN(c3ccc(Cl)c(OC)c3)C2=O)n1 (centres unmarked) [Compound 121] | 90 | 100 | 100 | 20 | 70 | 90 | 70 | 70 | 90 | 100 | 40 | 0 | 10 |  |  |  |  |  |  |  | Plant response rating, Morningglory [3, 14]: 50; Plant response rating, Lambsquarters [4, 14]: 80; Plant response rating, Cocklebur [5, 14]: 70; Plant response rating, Surinam grass [6, 14]: 30; Plant response rating, Pigweed [7, 14]: 50; Plant response rating, Foxtail, Giant [8, 14]: 0; Plant response rating, Velvetleaf [9, 14]: 30; Plant response rating, Crabgrass [10, 14]: 30; Plant response rating, Blackgrass [11, 14]: 0
2 | CCCC(C)c1ccn(C2OCN(c3cccc(OC(F)(F)F)c3)C2=O)n1 (centres unmarked) [Compound 91] | 100 | 100 | 100 | 70 | 90 | 100 | 70 | 90 | 90 | 80 | 10 | 0 | 0 | 100 | 70 | 70 | 80 | 100 | 20 | 10 | Plant response rating, Pigweed [7, 15]: 90; Plant response rating, Foxtail, Giant [8, 16]: 0; Plant response rating, Foxtail, Giant [8, 15]: 40; Plant response rating, Velvetleaf [9, 15]: 30; Plant response rating, Crabgrass [10, 16]: 40; Plant response rating, Crabgrass [10, 15]: 90; Plant response rating, Blackgrass [11, 16]: 0
3 | CC(C)(C)c1ccn(C2SCN(c3cccc(OC(F)F)c3)C2=O)n1 (centres unmarked) [Compound 36] |  | 70 |  |  | 60 |  |  | 80 |  | 60 | 50 | 0 |  | 70 | 60 | 70 | 40 | 100 | 20 | 0 | Plant response rating, Lambsquarters ([1]; Rate 31 g/ha, scale 0 to 100): 50; Plant response rating, Pigweed ([2]; Rate 31 g/ha, scale 0 to 100): 30; Plant response rating, Kochia (kochia (Kochia scoparia); Rate 31 g/ha, scale 0 to 100): 20; Plant response rating, Morningglory [3, 16]: 30; Plant response rating, Lambsquarters [4, 16]: 90; Plant response rating, Pigweed [7, 16]: 90; Plant response rating, Pigweed [7, 15]: 100; Plant response rating, Foxtail, Giant [8, 16]: 60; Plant response rating, Foxtail, Giant [8, 15]: 90; Plant response rating, Velvetleaf [9, 16]: 0; Plant response rating, Velvetleaf [9, 15]: 60; Plant response rating, Crabgrass [10, 16]: 80; Plant response rating, Crabgrass [10, 15]: 100; Plant response rating, Blackgrass [11, 16]: 0; Plant response rating, Sunflower (Sunflower; Rate 31 g/ha): 0
